Measured values taken from patent US8772348B2, “Materials and methods for pest control” (priority 2009, dated 2014).
Like-named read-outs stand apart in the source and are kept apart here.

Experiments:
[1] = test system: Field-collected Musca domestica
Description: Briefly, one Musca domestica strain is collected from the University of Florida dairy unit in Alachua County, Florida, U.S.A. (“the Alachua strain”). The other Musca domestica strain is collected from a dairy farm in Gilchrist County, Florida, U.S.A. (“the Gilchrist strain”). Both strains are colonized adults, and are subsequently reared at 27° C. in the laboratory of the Entomology and Nematology Department, University of Florida.
The positive control is exposed to serial dilutions of permethrin. The negative control is not exposed to any chemical compound. 1 mL of insecticide was dissolved in acetone (concentrations between 0.5 and 20 mg mL^−1) in a 60 mL glass jar having a 67.86 cm^2 inside surface area (Wheaton, Millville, N.J.). Jars were allowed to dry for 1 h prior to fly introduction. Flies were held in jars for 2, 4 and 24 h, and fly mortality rate was scored at that time. Sugar water (10%) was provided in all assays, unless stated otherwise. The mortality rate is measured after a 2-hour, 4-hour, and 24-hour period. Ataxic flies are considered dead. The mortality rate and the LC values are determined using the same procedures as is illustrated in Example 2.

[2] = test system: Stomoxys calcitrans; conditions: S. calcitrans; formulation on plywood panels at 1.67 mg cm^−2; mortality 24 h after
Description: (§1) Briefly, each fly strain is divided into eight sets: three sets as the experiment, four sets as the positive control, and one set as the negative control. Flies are assayed on unpainted plywood panel boards that have been previously exposed to natural summer weather conditions for at least 10 days. […] The positive control set is treated with permethrin, geranyl acetone, rosalva or citronellol. The negative control set is treated with water. The formulation is applied at a uniform rate of 7.5 ml per 225 cm^2, sufficient to cover the entire panel without dripping. Subsequently, the treated panel boards are dried for about an hour.
(§2) In each set, 20 adult flies are placed onto the panel boards. Flies are secured with wooden embroidery hoops, covered with a coarse mesh screen cloth previously sprayed with the respective formulation. After 4 hours, flies are transferred into a clean jar. The mortality rate is measured 24 hours after the transfer, and is determined using the same procedures as are illustrated in Example 2.
(§3) Plywood panels (225 cm^2) were treated with chemicals at a rate of 1.67 mgcm^−2. Panels were treated on day 0 and held until exposure on post-treatment day. Mosquitoes were exposed to chemicals for 2 h, and mortality rate was assessed 24 h after initial exposure. Control contained formulation ingredients without semiochemicals.

[3] = test system: Musca domestica; conditions: M. domestica; formulation on plywood panels at 1.67 mg cm^−2; mortality 24 h after
Description: as §1, §2, §3

[4] = test system: Aedes aegypti; conditions: On camouflage military fabric
Description: (§4) The mortality rate is measured after a 2-hour, 4-hour and 24-hour exposure period. Ataxic mosquitoes are considered dead.
(§5) The ability of Ae. aegypti to recover from insecticidal exposure is also investigated. After a 2-hour exposure, each set of Ae. aegypti is transferred into a separate jar. The mortality rate is measured at two time intervals: first, immediately at the transfer (2 hours after the initial exposure), and second, 22 hours after the transfer (24 hours after the initial exposure).
The mortality rate and the LC values are determined using the same procedures as is illustrated in Example 2.

[5] = test system: Musca domestica; conditions: formulation on plywood panels, 3.33 mg cm^−2 (footnote 1.67), 2 h exposure, mortality 24 h after
Description: Briefly, after Musca domestica is exposed to formulations at concentration of 3.33 mg cm^−2 for 2 hours, each set is transferred into a separate glass jar, and held for another 24 hours.
(§6) Plywood panels (225 cm^2) were treated with chemicals at a rate of 1.67 mg cm^−2. Panels were treated on day 0 and was held until exposure on post-treatment day. Mosquitoes were exposed to chemicals for 2 h, and mortality rate was assessed 24 h after initial exposure. Control contained formulation ingredients without semiochemicals.

[6] = test system: Aedes aegypti; conditions: On filter paper
Description: Briefly, yellow fever mosquito, Ae. aegypti were obtained from strains that have been cultured in the laboratory of the Entomology and Nematology Department, University of Florida.
as §4, §5

[7] = test system: Aedes aegypti; conditions: formulation on plywood panels at 1.67 mg cm^−2, 2 h exposure, mortality 24 h after initial exposure
Description: Briefly, after mosquitoes are assayed on unpainted plywood panel boards with formulation at a concentration of 1.67 mg cm^−2 for 2 hours, they are transferred into a separate glass jar, and held for another 24 hours. The mortality rate is measured daily for a continuous 4 days (Day 1 starts at 24 hours after the transfer), as is determined using the same procedures as are illustrated in Example 2.
as §6

[8] = test system: Susceptible Musca domestica; assay: Glass jar contact bioassay, susceptible (laboratory) house flies
Description: Briefly, adult house flies, Musca domestica, are obtained from strains that have been reared in the laboratory of the Entomology and Nematology Department, University of Florida. […] The positive control is exposed to serial dilutions of permethrin. The negative control is not exposed to any chemical compound. The mortality rate is measured after 2-hour, 4-hour, and 24-hour periods. Ataxic flies are considered dead.
The ability of house flies to recover from insecticidal exposure is also investigated. After a 2-hour exposure, each set of flies is transferred into a separate glass jar. The mortality rate is measured at two time intervals: first, immediately at the transfer (2 hours after the initial exposure), and second, 22 hours after the transfer (24 hours after the initial exposure).
The mortality rate is analyzed using the PROBIT model. The data is adjusted based on the mortality rate in the control set using the Abbott's transformation, and the percent mortality is further analyzed based on ANOVA measurement. The experiment is repeated at least three times. The data is discarded if the mortality rate in the control set exceeds 10%. The LC50 and LC90 values are further determined using the SAS (Cary, N.C., USA) statistical software. For each chemical compound, at least 1280 flies are examined.

[9] = Alachua strain, 2 h constant exposure
[10] = Alachua strain, 4 h constant exposure
[11] = Alachua strain, 24 h constant exposure
[12] = Gilchrist strain, 2 h constant exposure
[13] = Gilchrist strain, 4 h constant exposure
[14] = Gilchrist strain, 24 h constant exposure
[15] = 2 h exposure then transferred, mortality 24 h after initial exposure
[16] = 2 h constant exposure, glass jar
[17] = 2 h exposure, transferred to clean jars, mortality 24 h after initial exposure
[18] = 4 h constant exposure, glass jar
[19] = 24 h constant exposure, glass jar

Work on permethrin [reference compound] yielded an LC50 [1, 9] of 4.61 μg cm^−2, an LC90 [1, 9] of 14.86 μg cm^−2 and an LC50 [1, 10] of 4.10 μg cm^−2. The LC90 [1, 10] was 15.85 μg cm^−2, the LC50 [1, 11] was 0.99 μg cm^−2 and the LC90 [1, 11] was 3.78 μg cm^−2. It also gave an LC50 [1, 12] of 0.41 μg cm^−2, an LC90 [1, 12] of 1.82 μg cm^−2 and an LC50 [1, 13] of 0.39 μg cm^−2. The LC90 [1, 13] was 1.51 μg cm^−2, the LC50 [1, 14] was 0.16 μg cm^−2 and the LC90 [1, 14] was 0.85 μg cm^−2. The “% mortality” value [2] was 100.00a %, the “% mortality” value [3] was 88.40a % and the LC50 ([4]; 2 h constant exposure) was 0.012 μg cm^−2. It also gave an LC50 [4, 15] of 0.45 μg cm^−2, an LC50 ([4]; 4 h constant exposure) of 0.0009 μg cm^−2 and an LC50 ([4]; 24 hr constant exposure) of 0.00031 μg cm^−2. For the same substance, the “% mortality on various days following treatment” value ([5]; day 1) was 100.00a %, the “% mortality on various days following treatment” value ([5]; day 2) was 90.50a % and the “% mortality on various days following treatment” value ([5]; day 3) was 97.50a %. For the same substance, the “% mortality on various days following treatment” value ([5]; day 5) was 97.50a %, the “% mortality on various days following treatment” value ([5]; day 7) was 97.50a % and the “% mortality on various days following treatment” value ([5]; day 14) was 67.00a %. For the same substance, the LC50 ([6]; 2 h constant exposure) was 0.02 μg cm^−2, the LC50 [6, 15] was 0.04 μg cm^−2 and the LC50 ([6]; 4 h constant exposure) was 0.0018 μg cm^−2. The LC50 ([6]; 24 hr constant exposure) was 0.00045 μg cm^−2, the “% mortality on various days following treatment” value ([7]; day 1) was 100.00a % and the “% mortality on various days following treatment” value ([7]; day 2) was 99.00a %. The “% mortality on various days following treatment” value ([7]; day 3) was 98.0a %, the “% mortality on various days following treatment” value ([7]; day 4) was 96.50a % and the LC50 [8, 16] was 0.18 μg cm^−2. It also gave an LC90 [8, 16] of 1.20 μg cm^−2, an LC50 [8, 17] of 0.58 μg cm^−2 and an LC90 [8, 17] of 3.56 μg cm^−2. The “decline in toxicity after a 24-hour holding period subsequent to an initial 2-hour exposure” value ([8]; 2 h transferred vs 2 h constant) was ~3 fold, the LC50 [8, 18] was 0.10 μg cm^−2 and the LC90 [8, 18] was 0.95 μg cm^−2. It also gave an LC50 [8, 19] of 0.03 μg cm^−2 and an LC90 [8, 19] of 0.41 μg cm^−2.
